# Measurements published in patent US6750028B1, “Anti-fibrotic agent assay” (Ethicon, Inc, priority 1996, dated 2004).
# What was measured:
# TGF-β1 activation [1] = experiment: Macrophage activation assay (IC-21 macrophages, LPS, fetal fibroblast conditioned media, ELISA); assay type: cell-based, mouse
# Method: Cultured macrophages were lifted from the dish with 3 ml of PBS. The PBS was balanced with 15 ml of RPMI-1640 containing 10% FBS. The cells were counted and then seeded in 100 mm plates at 1×10^6 cells/dish. When the cultured macrophages reached approximately 70% confluency (2-3 days) they were washed with PBS and RPMI-1640 medium containing 5% FBS and 10 ng/ml LPS was applied (FIG. 1). After 24 h of activation with LPS the cells were washed gently with PBS. At this point conditioned medium from confluent fetal dermal fibroblasts was collected and 5 ml was distributed into each dish containing macrophages. The cells were incubated for an additional 24 h, the media were collected, spun down at 600×g for 10 min and stored at 4° C. before TGF-β1 evaluation by ELISA. Each condition was done in duplicate. The cells, washed with PBS, were harvested for total RNA extraction.
# Fetal dermal fibroblasts were seeded in 100 mm dishes at 1×10^6 cell/dish. The cells were grown to confluency (2-3 days). The cultures were washed with PBS and fresh medium, either DMEM supplemented with 10% FBS or AIM-V medium (a serum free medium) for serum-free conditions, was applied for 24 h (FIG. 1). The medium was collected and combined in order to obtain a homogenous pool of latent TGF-β1. The collection of the medium was done just prior to application in the macrophage assay.
# (§1) Each measurement was performed in duplicates.
# TGF-β1 activation [2] = experiment: TGF-β1 activation by prostate adenocarcinoma cells (ELISA); assay type: cell-based, human
# Method: as §1
# (§2) It has been shown that cancer cells, such as human breast cancer, some melanoma cell lines and prostate adenocarcinoma cell lines, constitutively release biologically active TGF-β1 into the culture medium (24, 25, 29). Since the homotypic cell culture system would be of advantage due to its simplicity, an attempt was made to implement cancer cells as a method for TGF-β1 activation.
# TGF-β1 activation [3] = experiment: TGF-β1 activation by HMB-2 melanoma cells (ELISA); assay type: cell-based, human
# Method: as §1, §2
# TGF-β1 activation [4] = experiment: TGF-β1 activation by Bowes melanoma cells (ELISA); assay type: cell-based, human
# Method: as §1, §2
# TGF-β1 mRNA [5] = experiment: mRNA for TGF-β1 in macrophages by Northern blot; assay type: cell-based, mouse; details: LPS alone or LPS with M6P or DCA, FIG. 2
# Method: (§3) The cells were washed with PBS, followed by addition of the extraction buffer provided with the kit (RNeasy RNA extraction kit). The lysed cells were scraped from the dish and collected in microtubes. Samples were either frozen at −70° C. before analysis or directly assessed following manufacturer protocol. Absorbance at 260 nm and 280 nm was measured and the integrity of RNA was evaluated by denaturing formaldehyde agarose gels stained with ethidium bromide.
# Northern blot analysis was carried out as described previously (27). Briefly, total RNA samples (5 μg) were diluted in formaldehyde-MOPS buffer and subjected to electrophoresis in a denaturing 1.2% Sea Kem GTG agarose gel along with the RNA size markers. RNA was transferred to a nitrocellulose membrane by capillary transfer. The blots were prehybridized for 3 h at 42° C. in a solution containing 10% dextran sulfate, 2×Denhardt's solution, 50% formamide, 5×SSPE (0.75 M Sodium chloride, 0.05 M sodium phosphate, 0.005 M ethylenediaminetetraacetic acid)/0.1% SDS, and 250 μg/ml of sheared salmon testis DNA. Hybridization solution was essentially the same except that ^32P dCTP-labeled DNA probe and 150 μg/ml of salmon testis DNA were included. The hybridization was carried out for 16 h at 42° C. […]
# [6] = system: tissue Transglutaminase II mRNA; experiment: mRNA for TGase II in macrophages by RT-PCR densitometry; assay type: cell-based, mouse; details: 1 μM hydrocortisone, densitometry of RT-PCR products, FIG. 3
# Method: as §3
# The procedure used to transcribe the total RNA was described in detail previously (28). […]
# A portion of the first strand cDNA reaction was used in PCR, which was carried out in 25 μl containing 16 mM Tris-HCl, pH 8.3, 50 mM KCl, 1.5 mM MgCl2, 0.01% gelatin, 200 μM of each dNTPs, 1 μM each sense and antisense oligonucleotides and 2.5 units of AmpliTaq DNA polymerase. […] Sizes were determined using Q X 174 DNA/Hae III markers. […] Densitometry was used for quantitative analysis of the ethidium bromide stained gels.
# In an attempt to identify the mechanism of this inhibition, the level of mRNA was evaluated for TGase II in macrophages treated with 1 μM hydrocortisone.
# TGF-β1 mRNA [7] = experiment: TGF-β1 mRNA in human neonatal fibroblasts by RT-PCR; assay type: cell-based; details: 100 and 200 μM
# Method: (§4) Human neonatal fibroblasts were seeded in 100 mm dishes at 1×10^6 cells/dish. […] In addition, cells were treated with two concentrations of Mannose 1-Phosphate (M1P) (100 and 200 μM) for 24 and 48 h. […] Each treatment was run in duplicates and repetitive analyses were performed.
# (§5) The procedure used to transcribe the total RNA was described in detail previously (28). Briefly, the reaction was carried out in a total volume of 25 μl containing 1× reverse transcriptase buffer (50 mM Tris-HCl, pH 8.3, 75 mM KCl, 3 mM MgCl2), 10 mM DTT (Dithiothreitol), 2.5 mM each of dNTPs (Deoxynucleotides), 100 μg/ml of acetylated BSA, 4 units of rRNasin (ribonuclease inhibitor), 200 units of SuperScript™ RNase H^−Reverse Transcriptase, 0.1 μg of oligo (dT)12-18 and 1 μg of total RNA. Incubation was carried out for 1 h at 42° C. and was terminated by the addition of an equal volume of cold water.
# (§6) A portion of the first strand cDNA reaction was used in PCR, which was carried out in 25 μl containing 16 mM Tris-HCl, pH 8.3, 50 mM KCl, 1.5 mM MgCl2, 0.01% gelatin, 200 μM of each dNTPs, 1 μM each sense and antisense oligonucleotides and 2.5 units of AmpliTaq DNA polymerase. Amplification was carried out for 35 cycles. Each cycle consisted of: denaturation 1 min at 95° C.; annealing at 55° C. (optimal for the pair of oligonucleotides used) for 2 min; and elongation at 72° C., 3 min. For the final cycle elongation was 7 min. Reaction products were separated by 2% agarose gel electrophoresis and were visualized by ethidium bromide staining. Sizes were determined using Q X 174 DNA/Hae III markers. Restriction digests were performed in order to confirm PCR product specificity. Densitometry was used for quantitative analysis of the ethidium bromide stained gels.
# M6P/IGF-II receptor mRNA = M6P/IGF-II receptor mRNA in human neonatal fibroblasts by RT-PCR; assay type: cell-based; details: 100 and 200 μM
# Method: as §4, §5, §6
# TGF-β1 activation [8] = experiment: BAEC treated with retinoic acid, TGF-β1 in conditioned media by ELISA; assay type: cell-based, bovine
# Method: The procedures for preparation of conditioned media were described previously (22). Briefly, for the retinoid experiment, BAEC cells were grown to confluency in 35 mm dishes. The cultures were rinsed with PBS (Phosphate Buffered Saline), and incubated in 1 ml of serum-free DMEM containing 0.1% of BSA and retinoic acid (10 μM) or vehicle (0.5% ethanol). The incubation was carried out for 24 h. The medium was aspirated, the cells were washed with PBS and then incubated in 1 ml of DMEM/0.1% BSA for an additional 12 h to produce conditioned medium. Conditioned media were centrifuged and used in the ELISA assay for TGF-β1 evaluation.
# Each measurement was performed in duplicates. […]
# [9] = BAEC + RA (10 μM) + test agent 100 μM
structure (smiles),measurement,setting,value
"NCCSSCCN [Cystamine, cystamine]","active TGF-β1, % Control (STD)",TGF-β1 activation [1]; 50 μM M6P + 100 μM putrescine or cystamine,did not show additive effect
same,% ACTIVE TGF-β1 (STD),"TGF-β1 activation [2]; Adenocarcinoma cells, M6P 100 μM, cystamine 100 μM, antibody 1:1500 dil",91.1%
"CN(C)c1cccc2c(S(=O)(=O)NCCCCCN)cccc12 [DCA, monodansylcadaverine]",% ACTIVE TGF-β1 (STD),"TGF-β1 activation [3]; HMB-2, M6P 100 μM, DCA 100 μM, antibody 1:1500 dil",110.7%
same,"effect on TGF-β1 activation, in words",TGF-β1 activation [3]; melanoma cells (HMB-2),no effect
same,% ACTIVE TGF-β1 (STD),"TGF-β1 activation [4]; BOWES, M6P 100 μM, DCA 100 μM, antibody 1:1500 dil",145%
same,"effect on TGF-β1 activation, in words",TGF-β1 activation [4]; melanoma cells (Bowes),no effect
same,"effect on TGF-β1 activation, in words",TGF-β1 activation [2]; prostate cancer cells,no effect
same,"levels of mRNA for TGF-β1, in words",TGF-β1 mRNA [5],remained the same
"C[C@]12CCC(=O)C=C1CC[C@@H]1[C@@H]2[C@@H](O)C[C@@]2(C)[C@H]1CC[C@]2(O)C(=O)CO [Hydrocortisone, hydrocortisone]","active TGF-β1, % Control (STD)",TGF-β1 activation [1]; 1 μM,64.0 (0.4) %
same,"active TGF-β1, % Control (STD)","TGF-β1 activation [1]; 1 μM, listed as hydrocortisone",64.0%
same,"level of mRNA for TGase II, reduced to",[6],37.5%
"O=P(O)(O)O[C@H]1O[C@H](CO)[C@@H](O)[C@H](O)[C@@H]1O [M1P, alpha-D(+)mannose 1-phosphate]","effect on TGF-β1 mRNA level, in words",TGF-β1 mRNA [7],no effects
same,"effect on M6P/IGF-II receptor mRNA level, in words",M6P/IGF-II receptor mRNA,no effects
same,"inhibitory effect on TGF-β1 activation, in words","TGF-β1 activation [8]; 100 μM, BAEC treated with RA",no significant inhibitory effects
same,% Active,TGF-β1 activation [8]; [9],7.6%
same,Active TGF-β1,TGF-β1 activation [8]; [9],280 pg/mL
same,Total TGF-β1,TGF-β1 activation [8]; [9],3686 pg/mL
